Source: publication PMC5986654, “Combined HAT/EZH2 modulation leads to cancer-selective cell death” (Oncotarget, 2018)

Assays:
leukemia NB4 cells = experiment: Cell death induction in NB4 cells (FACS, pre-G1); format: cell-based, human; details: for % Cell death NB4 cells: 3 μM, 30 h; for effect on cell death, single inhibitor: C646 5 µM, GSK126 10 µM, used separately
[1] = test system: neuroblastoma SHSY5Y cells; experiment: Cell death induction in SHSY5Y cells; format: cell-based; details: 3 μM, 48 h
Experimental: When tested in neuroblastoma SHSY5Y cells at tetrahydro-4H -pyran-4-one MC2912 failed in inducing
3 μM for 48 h, MC2884 and its analogues furnished cell death in SHSY5Y cells, whereas its thio-analogue
(Supplementary SAR Table 1). In general, the SHSY5Y similarly to what observed in NB4 cells.
than NB4 cells. Anyway, also in this cell line the death in both cell lines such as MC2910, 2912, 2909,
(MC2909), and bis 3,5-dibromophenyl (MC2910) were acetylation and EZH2 deregulation (SAR Figure 2). In […]
3-phenyl-1-propan-1-one chain at N1 (MC3187), which 3).

GCN5 = GCN5 (Homo sapiens, UniProt Q92830); experiment: HAT in vitro assay, 10-dose IC50, GCN5; format: biochemical; details: substrate Histone H3, 3 μM Acetyl-CoA; read-out: Compound IC50 GCN5
Chain of GCN5 (Q92830 whole entry): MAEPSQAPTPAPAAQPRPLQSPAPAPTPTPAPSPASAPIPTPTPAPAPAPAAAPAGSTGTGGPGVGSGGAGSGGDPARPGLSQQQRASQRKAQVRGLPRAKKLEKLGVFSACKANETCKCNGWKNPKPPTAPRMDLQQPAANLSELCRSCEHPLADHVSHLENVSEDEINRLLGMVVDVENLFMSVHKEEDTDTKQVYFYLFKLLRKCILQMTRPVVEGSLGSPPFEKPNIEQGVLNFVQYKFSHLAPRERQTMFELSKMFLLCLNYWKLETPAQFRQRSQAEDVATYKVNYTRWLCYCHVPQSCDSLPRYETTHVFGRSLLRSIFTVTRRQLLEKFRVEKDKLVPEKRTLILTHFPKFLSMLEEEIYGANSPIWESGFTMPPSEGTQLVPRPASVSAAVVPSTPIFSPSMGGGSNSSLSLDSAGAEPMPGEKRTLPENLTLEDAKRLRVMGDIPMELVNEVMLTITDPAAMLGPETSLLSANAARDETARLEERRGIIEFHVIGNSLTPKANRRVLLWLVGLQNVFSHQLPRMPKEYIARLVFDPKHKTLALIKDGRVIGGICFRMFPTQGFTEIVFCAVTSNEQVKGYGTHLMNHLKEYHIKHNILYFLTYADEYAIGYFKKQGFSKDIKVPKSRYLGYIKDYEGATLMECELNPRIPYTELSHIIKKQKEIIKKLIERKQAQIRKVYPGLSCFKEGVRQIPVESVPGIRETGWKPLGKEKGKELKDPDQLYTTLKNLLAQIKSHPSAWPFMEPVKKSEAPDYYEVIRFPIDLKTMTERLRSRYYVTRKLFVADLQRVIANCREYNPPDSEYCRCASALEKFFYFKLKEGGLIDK
Experimental: (§1) For HAT in vitro assay, MC2884 activity was also tested in vitro and IC50 was calculated as indicated in the scheme. […] Reactions were carried out at 3 μM Acetyl-CoA. Empty cells indicate no inhibition or compound activity that could not be fit to an IC50 curve.

pCAF = pCAF (Homo sapiens, UniProt Q92831); experiment: HAT in vitro assay, 10-dose IC50, pCAF; format: biochemical; details: substrate Histone H3, 3 μM Acetyl-CoA; read-out: Compound IC50 pCAF
Chain of pCAF (Q92831 whole entry): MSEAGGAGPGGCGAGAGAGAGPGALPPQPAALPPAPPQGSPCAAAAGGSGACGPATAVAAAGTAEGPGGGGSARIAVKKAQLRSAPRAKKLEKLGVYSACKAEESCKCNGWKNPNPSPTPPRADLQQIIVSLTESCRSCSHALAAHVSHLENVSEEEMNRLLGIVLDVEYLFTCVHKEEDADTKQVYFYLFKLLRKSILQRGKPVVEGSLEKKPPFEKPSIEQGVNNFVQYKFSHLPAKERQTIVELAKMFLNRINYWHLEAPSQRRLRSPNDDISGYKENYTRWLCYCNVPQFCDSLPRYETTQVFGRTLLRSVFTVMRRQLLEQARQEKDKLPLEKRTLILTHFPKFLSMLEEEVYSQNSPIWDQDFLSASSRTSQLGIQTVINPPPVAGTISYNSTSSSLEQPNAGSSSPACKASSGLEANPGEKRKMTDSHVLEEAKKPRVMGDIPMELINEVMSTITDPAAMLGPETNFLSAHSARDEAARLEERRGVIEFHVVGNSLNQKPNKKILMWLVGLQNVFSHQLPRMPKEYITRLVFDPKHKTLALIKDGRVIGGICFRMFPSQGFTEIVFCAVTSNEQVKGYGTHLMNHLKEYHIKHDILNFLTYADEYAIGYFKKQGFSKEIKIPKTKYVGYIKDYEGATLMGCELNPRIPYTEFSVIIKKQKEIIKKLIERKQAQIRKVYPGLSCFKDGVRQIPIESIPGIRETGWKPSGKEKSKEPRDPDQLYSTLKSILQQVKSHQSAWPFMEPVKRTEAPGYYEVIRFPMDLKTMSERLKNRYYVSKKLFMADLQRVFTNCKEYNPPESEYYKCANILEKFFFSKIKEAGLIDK
Experimental: as §1

CBP = CBP (Homo sapiens, UniProt Q92793); experiment: HAT in vitro assay, 10-dose IC50, CBP; format: biochemical; details: substrate Histone H3, 3 μM Acetyl-CoA; read-out: Compound IC50 CBP
Chain of CBP (Q92793 whole entry): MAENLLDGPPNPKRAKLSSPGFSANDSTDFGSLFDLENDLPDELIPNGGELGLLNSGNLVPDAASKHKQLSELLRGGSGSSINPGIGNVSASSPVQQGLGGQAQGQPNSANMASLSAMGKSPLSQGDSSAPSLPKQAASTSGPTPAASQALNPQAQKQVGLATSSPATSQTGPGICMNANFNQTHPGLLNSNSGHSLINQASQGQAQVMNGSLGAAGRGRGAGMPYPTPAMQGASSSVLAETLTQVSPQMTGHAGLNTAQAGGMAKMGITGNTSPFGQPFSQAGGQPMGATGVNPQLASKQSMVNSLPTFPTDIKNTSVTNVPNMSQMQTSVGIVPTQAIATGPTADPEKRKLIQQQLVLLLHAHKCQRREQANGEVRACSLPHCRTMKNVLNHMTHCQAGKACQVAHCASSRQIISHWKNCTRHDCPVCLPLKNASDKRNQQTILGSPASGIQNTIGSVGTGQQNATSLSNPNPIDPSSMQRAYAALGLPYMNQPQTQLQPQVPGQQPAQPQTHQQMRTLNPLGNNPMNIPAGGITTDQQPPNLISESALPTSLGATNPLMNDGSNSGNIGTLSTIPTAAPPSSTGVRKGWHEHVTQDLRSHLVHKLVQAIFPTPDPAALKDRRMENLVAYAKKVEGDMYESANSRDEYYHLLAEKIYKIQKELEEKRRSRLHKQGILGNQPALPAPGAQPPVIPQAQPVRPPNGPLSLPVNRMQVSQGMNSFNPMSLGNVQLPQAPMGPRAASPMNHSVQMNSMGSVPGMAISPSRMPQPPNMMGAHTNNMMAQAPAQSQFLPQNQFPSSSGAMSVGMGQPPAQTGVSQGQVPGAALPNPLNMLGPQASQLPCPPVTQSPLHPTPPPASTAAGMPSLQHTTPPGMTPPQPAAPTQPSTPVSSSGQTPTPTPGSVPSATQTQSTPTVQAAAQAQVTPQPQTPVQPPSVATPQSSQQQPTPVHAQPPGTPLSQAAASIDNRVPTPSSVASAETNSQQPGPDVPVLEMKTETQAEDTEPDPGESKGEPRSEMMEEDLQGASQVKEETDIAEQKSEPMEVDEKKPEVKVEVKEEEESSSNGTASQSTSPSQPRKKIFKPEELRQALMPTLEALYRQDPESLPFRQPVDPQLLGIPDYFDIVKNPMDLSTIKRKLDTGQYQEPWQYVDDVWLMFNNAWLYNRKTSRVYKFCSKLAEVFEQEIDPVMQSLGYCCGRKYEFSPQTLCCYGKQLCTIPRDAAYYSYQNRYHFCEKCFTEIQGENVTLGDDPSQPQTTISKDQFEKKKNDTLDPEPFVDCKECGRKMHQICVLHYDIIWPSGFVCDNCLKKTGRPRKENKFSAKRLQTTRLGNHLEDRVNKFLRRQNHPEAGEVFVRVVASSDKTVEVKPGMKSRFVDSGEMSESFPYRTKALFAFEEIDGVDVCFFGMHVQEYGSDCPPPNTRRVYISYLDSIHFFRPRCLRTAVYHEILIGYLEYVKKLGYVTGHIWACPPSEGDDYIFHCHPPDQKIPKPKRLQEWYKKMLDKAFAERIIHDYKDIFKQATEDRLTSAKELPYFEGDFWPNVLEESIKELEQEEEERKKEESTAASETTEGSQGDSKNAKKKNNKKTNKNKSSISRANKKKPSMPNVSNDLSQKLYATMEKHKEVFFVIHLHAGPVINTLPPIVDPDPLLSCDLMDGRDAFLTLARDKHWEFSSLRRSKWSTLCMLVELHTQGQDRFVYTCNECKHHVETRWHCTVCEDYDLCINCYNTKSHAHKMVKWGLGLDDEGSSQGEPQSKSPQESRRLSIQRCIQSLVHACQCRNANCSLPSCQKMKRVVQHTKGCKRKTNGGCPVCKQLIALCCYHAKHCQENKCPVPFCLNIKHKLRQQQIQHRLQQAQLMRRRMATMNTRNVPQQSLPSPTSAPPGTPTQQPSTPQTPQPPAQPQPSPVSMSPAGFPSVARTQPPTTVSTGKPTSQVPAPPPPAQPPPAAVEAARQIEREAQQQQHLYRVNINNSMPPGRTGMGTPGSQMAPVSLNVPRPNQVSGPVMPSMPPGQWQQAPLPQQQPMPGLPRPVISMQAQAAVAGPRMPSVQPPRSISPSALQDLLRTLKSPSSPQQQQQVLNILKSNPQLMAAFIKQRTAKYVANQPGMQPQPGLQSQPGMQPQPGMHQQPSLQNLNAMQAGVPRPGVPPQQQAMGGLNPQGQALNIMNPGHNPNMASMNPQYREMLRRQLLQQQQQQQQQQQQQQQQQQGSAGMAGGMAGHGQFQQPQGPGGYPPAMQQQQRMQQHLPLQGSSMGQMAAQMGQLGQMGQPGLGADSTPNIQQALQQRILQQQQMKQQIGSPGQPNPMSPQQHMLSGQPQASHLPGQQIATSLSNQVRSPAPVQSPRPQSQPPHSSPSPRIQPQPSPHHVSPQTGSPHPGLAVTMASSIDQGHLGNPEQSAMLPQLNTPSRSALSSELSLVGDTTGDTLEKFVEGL
Experimental: as §1

KAT5 = KAT5 (Homo sapiens, UniProt Q92993); experiment: HAT in vitro assay, 10-dose IC50, KAT5; format: biochemical; details: substrate Histone H2A, 3 μM Acetyl-CoA; read-out: Compound IC50 KAT5
Chain of KAT5 (Q92993 whole entry): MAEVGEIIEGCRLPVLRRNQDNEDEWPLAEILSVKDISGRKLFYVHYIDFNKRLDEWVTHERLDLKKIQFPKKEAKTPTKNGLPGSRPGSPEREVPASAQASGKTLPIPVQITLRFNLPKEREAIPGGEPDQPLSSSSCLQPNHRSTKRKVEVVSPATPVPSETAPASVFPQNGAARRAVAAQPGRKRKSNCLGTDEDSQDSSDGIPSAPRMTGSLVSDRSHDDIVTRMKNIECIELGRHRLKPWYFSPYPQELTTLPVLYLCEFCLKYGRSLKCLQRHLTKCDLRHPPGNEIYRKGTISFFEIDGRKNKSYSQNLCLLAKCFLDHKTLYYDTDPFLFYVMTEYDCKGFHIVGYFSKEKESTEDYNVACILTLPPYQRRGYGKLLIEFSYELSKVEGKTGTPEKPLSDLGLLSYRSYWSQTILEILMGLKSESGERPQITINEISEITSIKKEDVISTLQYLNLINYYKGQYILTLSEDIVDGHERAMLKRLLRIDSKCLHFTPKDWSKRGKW
Experimental: as §1

Compound | % Cell death NB4 cells (leukemia NB4 cells) | % Cell death SHSY5Y cells [1] | further results
O=C(/C=C/c1ccc(Br)cc1)/C=C/c1ccc(Br)cc1 [MC2886] | 0,56% | 1,2% | –
O=C1C(=Cc2cccc(Br)c2)CN(CC(=O)c2ccccc2)CC1=Cc1cccc(Br)c1 [MC3207] | 38% | 7.0% | –
O=C1/C(=C/c2cccc(Br)c2)CCC/C1=C\c1cccc(Br)c1 [MC2911] | 0,76% | 0,8% | –
O=C1C(=Cc2cccc(Br)c2)CSCC1=Cc1cccc(Br)c1 [MC2913] | 52.7% | 23.9% | –
CCCCCCCCCCCCCCCc1cccc(O)c1C(=O)O [Anacardic Acid] | – | – | IC50 (GCN5): 38.6 µM; IC50 (pCAF): 38.8 µM
O=C1C(=Cc2cccc(Br)c2)CN(C(=O)c2ccccc2)CC1=Cc1cccc(Br)c1 [MC3146] | 13.2% | 5.6% | –
O=C1C(=Cc2cccc(Br)c2)CN(CCc2ccccc2)CC1=Cc1cccc(Br)c1 [MC3269] | 62.5% | 19.2% | –
CN(C)CC[C@H](CSc1ccccc1)Nc1ccc(S(=O)(=O)NC(=O)c2ccc(N3CCN(Cc4ccccc4-c4ccc(Cl)cc4)CC3)cc2)cc1[N+](=O)[O-] [ABT-737, reference compound] | – | – | cell death, ABT-737 with addition of MC2884 (leukemia NB4 cells; NB4 cells, ABT-737 1 µM plus MC2884 at concentrations that alone induced little apoptosis): up to 60%
O=C1C(=Cc2ccc(Br)cc2)CN(Cc2ccccc2)CC1=Cc1ccc(Br)cc1 [MC2909] | 8.8% | 4.7% | –
CN1CC(=Cc2cccc(Br)c2)C(=O)C(=Cc2cccc(Br)c2)C1 [MC2914] | 36% | 9.0% | –
O=C1/C(=C/c2ccc(O)cc2Br)CN(Cc2ccccc2)C/C1=C\c1ccc(O)cc1Br [MC3395] | 0,53% | 1,0% | –
O=C1C(=Cc2ccccc2Br)CN(Cc2ccccc2)CC1=Cc1ccccc1Br [MC2908] | 30.3% | 9.2% | –
CC1=NN(c2ccc(C(=O)O)cc2)C(=O)/C1=C\c1ccc(-c2cc(C)c(C)cc2[N+](=O)[O-])o1 [C646, reference compound] | – | – | effect on cell death, single inhibitor (leukemia NB4 cells; NB4 cells): no effects; IC50 (CBP): 0.0787 µM; IC50 (KAT5): 20.4 µM
O=C1C(=Cc2cccc(Br)c2)CN(C(=O)CCc2ccccc2)CC1=Cc1cccc(Br)c1 [MC3187] | 28.9% | 19.9% | –
CC[C@H](C)n1cc(C)c2c(C(=O)NCc3c(C)cc(C)[nH]c3=O)cc(-c3ccc(N4CCNCC4)nc3)cc21 [GSK126, reference compound] | – | – | effect on cell death, single inhibitor (leukemia NB4 cells; NB4 cells): no effects
